{"source": "patent US20030190322A1", "about": "“Immunostimulating properties of a fragment of tgf-beta” (priority 2000, published 2003)", "key": {"parvovirus peptide [1]": {"system": "parvovirus peptide", "assay": "ELISA antibody titre to parvovirus peptide in rabbits, TGF-29 dose experiment with Titermax adjuvant (Example 3)", "format": "in vivo", "conditions": "group with highest dose TGF-29 (20 ug) plus 100 μg parvovirus peptide and Titermax adjuvant (preparation Iris); one rabbit, bleeding T3, 6 weeks after first immunisation", "method": "Both preparations were subcutaneously injected into 2 groups of rabbits. Each injected dose was 0.1 mL and the preparations for a resulting volume between 0.4 and 0.5 mL was made as follows:\nEach injected dose of 0.1 mL therefore contains approximate 4 ug TGF-29 and 100 ug parvovirus peptide.\nInto the same vial 154 microliter H2O was added and the combined fractions subsequently mixed by stirring a few seconds and then transferred in drops, while stirring, into a small 1.8 mL plast vial preloaded with 250 microliter Titermax adjuvant. The resulting volume of the water-in-oil emulsion volume was a little more than 0.4 mL. Each injected dose of 0.1 mL therefore contains approximate 20 μg TGF-29 and 100 μg parvovirus peptide.\nThe rabbits were then immunised according to the normal standard immunisation procedure for antibody production in rabbits at a legal laboratory animal facility.\nBefore immunisation, a pre-immunisation serum sample (To) of each rabbit was collected. […]\n(§1) The serum samples were analysed on an ELISA plate according to standard laboratory operations: Coating the plate bottom with parvo virus peptide derivative overnight, washings, incubation with serial dilutions of all serum samples, washings, incubation with HRP-Goat anti Rabbit 1 g, washings, incubation with substrate, stop reaction with acid, and reading of the plate."}, "parvovirus peptide [2]": {"system": "parvovirus peptide", "assay": "ELISA antibody titre to parvovirus peptide in rabbits immunised with Parv or Parv+TGF-29 (Example 1)", "format": "in vivo", "conditions": "subcutaneous, 3 immunisations at 2 week intervals, freunds incomplete adjuvant", "method": "Both preparations were subcutaneously injected into 2 groups of rabbits. The con-tent of each injected dose of 0.2 mL were;\n50 microgram parvovirus peptide was dissolved in 0.05 mL PBS and subsequently mixed with 0.05 mL PBS by stirring. The combined fractions were then mixed with 0.1 mL freunds incomplete adjuvant by stirring.\n50 microgram parvovirus peptide was dissolved in 0.05 mL PBS and subsequently mixed with 100 microgram of a crude fraction comprising TGF-29 dissolved in 0.05 mL PBS, and then the combined fractions were mixed with 0.1 mL freunds incomplete adjuvant by stirring,\nThe rabbits were immunised by subcuteous injection according to normal standard immunisation procedures for antibody production in rabbits at a legal laboratory animal facility.\nBefore immunisation, a pre-immunisation serum sample (T0) of each rabbit were collected. Two weeks after the last of 3 immunisations (given at 2 week intervals) an immune serum sample (T1) was collected from each rabbit. […]\nas §1, with “operations.” for “operations:”"}}, "note": "No end group written: not given here."}
{"substance": "ALDAAYCFRNVQDNCCLRPLYIDFKRDLG (cysteine pairing not given here) [TGF-29]", "values": [{"measurement": "titer to the parvovirus peptide compared with T0 serum (highest of all bleedings)", "setting": "parvovirus peptide [1]", "value": "more than three 5-fold serial antiserum dilutions better than the corresponding T0 serum"}]}
{"substance": "acetyl-CDGAVQPDGGQPAVRNER-amide (Ac-CDGAVQPDGGQPAVRNER-NH2) [Parv]", "values": [{"measurement": "antibody titre to the parvovirus peptide, immune serum samples compared with T0 sera", "setting": "parvovirus peptide [2]", "value": "Non-detectable or less antibody titre to the parvovirus peptide than in the corresponding to sera"}]}
